Test results from patent publication US8604038B2, “Pyrrolidine derived beta 3 adrenergic receptor agonists” (Merck Sharp & Dohme Corp., priority 2009, dated 2013).

Each compound was assayed against T1, human β3 adrenergic receptor (Homo sapiens, UniProt P13945) (assay: Beta-3 agonist in vitro functional assay (cAMP production, LANCE, transfected CHO cells)). Conditions: Table 1, CHO cells with cloned β3 receptor, ligands titrated 10^-10 M to 10^-5 M, read-out: Human β3 agonist functional activity.
T1 construct: expressed in transfected cells; host or cells: CHO (Chinese hamster ovary) cells, stably transfected
T1 sequence (P13945 whole entry): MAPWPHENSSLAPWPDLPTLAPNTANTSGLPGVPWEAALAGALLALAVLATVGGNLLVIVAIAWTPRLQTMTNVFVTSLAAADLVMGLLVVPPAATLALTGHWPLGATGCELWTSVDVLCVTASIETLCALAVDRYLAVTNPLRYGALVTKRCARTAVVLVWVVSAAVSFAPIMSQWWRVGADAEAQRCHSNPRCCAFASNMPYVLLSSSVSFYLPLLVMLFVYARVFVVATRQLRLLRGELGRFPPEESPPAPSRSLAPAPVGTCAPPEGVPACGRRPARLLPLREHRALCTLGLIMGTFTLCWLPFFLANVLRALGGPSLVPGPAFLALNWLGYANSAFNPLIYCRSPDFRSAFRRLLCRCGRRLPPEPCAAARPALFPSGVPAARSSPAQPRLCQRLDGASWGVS
Format: cell-based
Protocol: Functional Assay: For compounds in examples 1-50, cAMP production in response to ligand is measured according to Barton, et al. (1991, Agonist-induced desensitization of D2 dopamine receptors in human Y-79 retinoblastoma cells. Mol. Pharmacol. […]:650-658) modified as follows. The cAMP production is measured using a homogenous time-resolved fluorescence resonance energy transfer immunoassay (LANCE™, Perkin Elmer) according to the manufacture's instructions. Chinese hamster ovary (CHO) cells, stably transfected with the cloned β-adrenergic receptor (β1, β2 or β3) are harvested after 3 days of subculturing. Harvesting of cells is done with Enzyme-free Dissociation Media (Specialty Media). Cells are then counted and resuspended in assay buffer (Hank's Balanced salt solution supplemented with 5 mM HEPES, […]) containing a phosphodiesterase inhibitor (IBMX, 0.6 mM). The reaction is initiated by mixing 6,000 cells in 6 μL with 6 μL Alexa Fluor labeled cAMP antibody (LANCE™ kit) which is then added to an assay well containing 12 μL of compound (diluted in assay buffer to 2× final concentration). The reaction proceeds for 30 minutes at RT and is terminated by the addition of 24 ul detection buffer (LANCE™ kit). The assay plate is then incubated for 1 h at RT and time-resolved fluorescence measured on a Perkin Elmer Envision reader or equivalent. The unknown cAMP level is determined by comparing fluorescence levels to a cAMP standard curve.
The non-selective, full agonist β-adrenergic ligand isoproterenol is used at all three receptors to determine maximal stimulation. The human β3 adrenergic receptor (AR) selective ligand (S)-N-[4-[2-[[2-hydroxy-3-(4-hydroxyphenoxy)propyl]amino]ethyl]-phenyl]-4-iodobenzenesulfonamide is used as a control in all assays. […] The EC50 is defined as the concentration of compound that gives 50% activation of its own maximum. Data are analyzed using Microsoft Excel and Graphpad Prism or an internally developed data analysis software package.
The EC50 is defined as the concentration of compound that gives 50% activation of its own maximum. Functional antagonist assays are performed similar to described above; however, unknown ligands are titrated at β-adrenergic receptor subtypes 1 and 2 at a final concentration in the assay of 10^-12 M to 10^-5 M in the presence of 10^-9 M full agonist β-adrenergic ligand isoproterenol. The EC50 is defined as the concentration of compound that gives 50% inhibition of the full agonist response. Data are analyzed using Microsoft Excel and Graphpad Prism or an internally developed data analysis software package.

Row | EC50 [nM] | Compound
1 | 10 to 99.9 | O=C(NCc1ccccn1)c1ccc(C[C@@H]2CC[C@H]([C@H](O)c3ccccc3)N2)cc1 [Example 2]
2 | 10 to 99.9 | Cc1cc(C)nc(CNC(=O)c2ccc(C[C@@H]3CC[C@H]([C@H](O)c4ccccc4)N3)cc2)n1 [Example 3]
3 | 10 to 99.9 | O=C(NCc1ncccc1F)c1ccc(C[C@@H]2CC[C@H]([C@H](O)c3ccccc3)N2)cc1 [Example 4]
4 | 10 to 99.9 | O=C(NCc1cc(Cl)ccn1)c1ccc(C[C@@H]2CC[C@H]([C@H](O)c3ccccc3)N2)cc1 [Example 5]
5 | 10 to 99.9 | O=C(NCc1cccc(Cl)n1)c1ccc(C[C@@H]2CC[C@H]([C@H](O)c3ccccc3)N2)cc1 [Example 6]
6 | 10 to 99.9 | COC(=O)c1ccnc(CNC(=O)c2ccc(C[C@@H]3CC[C@H]([C@H](O)c4ccccc4)N3)cc2)c1 [Example 7]
7 | 100 to 999 | O=C(NCc1cccnn1)c1ccc(C[C@@H]2CC[C@H]([C@H](O)c3ccccc3)N2)cc1 [Example 8]
8 | 100 to 999 | O=C(NCc1ncccn1)c1ccc(C[C@@H]2CC[C@H]([C@H](O)c3ccccc3)N2)cc1 [Example 9]
9 | 100 to 999 | O=C(NCc1cnccn1)c1ccc(C[C@@H]2CC[C@H]([C@H](O)c3ccccc3)N2)cc1 [Example 10]
10 | 999 to 3000 | CC(NC(=O)c1ccc(C[C@@H]2CC[C@H]([C@H](O)c3ccccc3)N2)cc1)c1cnccn1 (stereo partly shown) [Example 11]
11 | 10 to 99.9 | O=C(NCc1ccncn1)c1ccc(C[C@@H]2CC[C@H]([C@H](O)c3ccccc3)N2)cc1 [Example 12]
12 | 10 to 99.9 | Cc1cccnc1CNC(=O)c1ccc(C[C@@H]2CC[C@H]([C@H](O)c3ccccc3)N2)cc1 [Example 13]
13 | 10 to 99.9 | O=C(NCc1nccc(C(F)(F)F)n1)c1ccc(C[C@@H]2CC[C@H]([C@H](O)c3ccccc3)N2)cc1 [Example 14]
14 | 10 to 99.9 | O=C(NCc1nccc(C2CC2)n1)c1ccc(C[C@@H]2CC[C@H]([C@H](O)c3ccccc3)N2)cc1 [Example 15]
15 | 10 to 99.9 | Cc1cc(C2CC2)nc(CNC(=O)c2ccc(C[C@@H]3CC[C@H]([C@H](O)c4ccccc4)N3)cc2)n1 [Example 16]
16 | 100 to 999 | Cc1cccc(CNC(=O)c2ccc(C[C@@H]3CC[C@H]([C@H](O)c4ccccc4)N3)cc2)n1 [Example 17]
17 | 10 to 99.9 | Cc1ccnc(CNC(=O)c2ccc(C[C@@H]3CC[C@H]([C@H](O)c4ccccc4)N3)cc2)n1 [Example 18]
18 | 10 to 99.9 | Cc1ccnc(CNC(=O)c2ccc(C[C@@H]3CC[C@H]([C@H](O)c4ccccc4)N3)cc2)c1 [Example 19]
19 | 10 to 99.9 | Cc1nccnc1CNC(=O)c1ccc(C[C@@H]2CC[C@H]([C@H](O)c3ccccc3)N2)cc1 [Example 20]
20 | 10 to 99.9 | O=C(NCc1nccc(-c2ccccc2)n1)c1ccc(C[C@@H]2CC[C@H]([C@H](O)c3ccccc3)N2)cc1 [Example 21]
21 | 10 to 99.9 | Cc1cc(-c2ccccc2)nc(CNC(=O)c2ccc(C[C@@H]3CC[C@H]([C@H](O)c4ccccc4)N3)cc2)n1 [Example 22]
22 | 10 to 99.9 | O=C(NCc1cc(-c2ccccc2)ncn1)c1ccc(C[C@@H]2CC[C@H]([C@H](O)c3ccccc3)N2)cc1 [Example 23]
23 | 10 to 99.9 | O=C(NCc1ncc(-c2ccccc2)cn1)c1ccc(C[C@@H]2CC[C@H]([C@H](O)c3ccccc3)N2)cc1 [Example 24]

Row | EC50 [nM] | Compound
24 | 10 to 99.9 | Nc1nc(CNC(=O)c2ccc(C[C@@H]3CC[C@H]([C@H](O)c4ccccc4)N3)cc2)cs1 [Example 25]
25 | 10 to 99.9 | Nc1nc(CNC(=O)c2ccc(C[C@@H]3CC[C@H]([C@H](O)c4cccnc4)N3)cc2)cs1 [Example 26]
26 | 10 to 99.9 | Cc1nc(CNC(=O)c2ccc(C[C@@H]3CC[C@H]([C@H](O)c4ccccc4)N3)cc2)cs1 [Example 27]
27 | 10 to 99.9 | O=C(NCc1nc(C(F)(F)F)cc(=O)[nH]1)c1ccc(C[C@@H]2CC[C@H]([C@H](O)c3ccccc3)N2)cc1 [Example 28]
28 | 10 to 99.9 | O=C(NCc1cc(-c2ccccc2)no1)c1ccc(C[C@@H]2CC[C@H]([C@H](O)c3ccccc3)N2)cc1 [Example 29]
29 | 10 to 99.9 | O=C(NCc1cc(-c2ccccc2)no1)c1ccc(C[C@@H]2CC[C@H]([C@H](O)c3cccnc3)N2)cc1 [Example 30]
30 | 100 to 999 | O=C(NCc1cc(-c2ccccc2)no1)c1ccc(C[C@@H]2CC[C@H]([C@H](O)c3ccc[n+]([O-])c3)N2)cc1 [Example 31]
31 | 10 to 99.9 | O=C(NCc1cc(-c2ccccc2)n[nH]1)c1ccc(C[C@@H]2CC[C@H]([C@H](O)c3ccccc3)N2)cc1 [Example 32]
32 | 1 to 9.9 | O=C(NCc1nc(-c2ccccc2)n[nH]1)c1ccc(C[C@@H]2CC[C@H]([C@H](O)c3cccnc3)N2)cc1 [Example 33]
33 | 10 to 99.9 | O=C(NCc1nc2ccccc2[nH]1)c1ccc(C[C@@H]2CC[C@H]([C@H](O)c3ccccc3)N2)cc1 [Example 34]
34 | 10 to 99.9 | Cn1c(CNC(=O)c2ccc(C[C@@H]3CC[C@H]([C@H](O)c4ccccc4)N3)cc2)nc2ccccc21 [Example 35]
35 | 10 to 99.9 | Cn1c(CNC(=O)c2ccc(C[C@@H]3CC[C@H]([C@H](O)c4cccnc4)N3)cc2)nc2ccccc21 [Example 36]
36 | 10 to 99.9 | O=C(NCc1nc2cccnc2[nH]1)c1ccc(C[C@@H]2CC[C@H]([C@H](O)c3ccccc3)N2)cc1 [Example 37]
37 | 1 to 9.9 | O=C(NCc1nc2ccncc2[nH]1)c1ccc(C[C@@H]2CC[C@H]([C@H](O)c3ccccc3)N2)cc1 [Example 38]
38 | 10 to 99.9 | O=C(NCc1nc2ccncc2[nH]1)c1ccc(C[C@@H]2CC[C@H]([C@H](O)c3cccnc3)N2)cc1 [Example 39]
39 | 10 to 99.9 | O=C(NCc1nc2ccccc2s1)c1ccc(C[C@@H]2CC[C@H]([C@H](O)c3ccccc3)N2)cc1 [Example 40]
40 | 10 to 99.9 | O=C(NCc1nc2ccccc2s1)c1ccc(C[C@@H]2CC[C@H]([C@H](O)c3cccnc3)N2)cc1 [Example 41]
41 | 1 to 9.9 | O=C(NCc1nccc2ccccc12)c1ccc(C[C@@H]2CC[C@H]([C@H](O)c3ccccc3)N2)cc1 [Example 42]
42 | 10 to 99.9 | O=C(NCc1nccc2ccccc12)c1ccc(C[C@@H]2CC[C@H]([C@H](O)c3cccnc3)N2)cc1 [Example 43]
43 | 10 to 99.9 | O=C(NCc1ccc2ccccc2n1)c1ccc(C[C@@H]2CC[C@H]([C@H](O)c3ccccc3)N2)cc1 [Example 44]
44 | 10 to 99.9 | O=C(NCc1cc2ccccc2cn1)c1ccc(C[C@@H]2CC[C@H]([C@H](O)c3ccccc3)N2)cc1 [Example 45]
45 | 100 to 999 | O=C(NCc1ccccc1-c1c[nH]cn1)c1ccc(C[C@@H]2CC[C@H]([C@H](O)c3ccccc3)N2)cc1 [Example 46]

Same assay, conditions: Table 3, CHO cells with cloned β3 receptor, ligands titrated 10^-12 M to 10^-5 M, read-out: Human β3 agonist functional activity

Row | EC50 [nM] | Compound
46 | 100 to 999 | CN(C(=O)c1ccc(CC2CCC(C(O)c3ccccc3)N2)cc1)C(c1ccccn1)C1CC1 (mixture of isomers) [Example 96]
47 | 10 to 99.9 | CC(C1COc2ccccc2O1)N(C)C(=O)c1ccc(C[C@@H]2CC[C@H]([C@H](O)c3ccccc3)N2)cc1 (single isomer, unassigned) [Example 94]
48 | 100 to 999 | CC(C1COc2ccccc2O1)N(C)C(=O)c1ccc(C[C@@H]2CC[C@H]([C@H](O)c3ccccc3)N2)cc1 (single isomer, unassigned) [Example 95]

Same assay, conditions: given as a range, CHO cells with cloned β3 receptor, read-out: human Beta-3 agonist functional activity

Row | EC50 [nM] | Compound
49 | 1 to 9.9 | O=C(NCc1nc(-c2ccccc2)n[nH]1)c1ccc(C[C@@H]2CC[C@H]([C@H](O)c3ccccc3)N2)cc1 [Example 1, 4-({(2S,5R)-5-[(R)-hydroxy(phenyl)methyl]pyrolidin-2-yl}methyl)-N-[(3-phenyl-1H-1,2,4-triazol-5-yl)methyl]benzamide]
